According to patent US7598382B2, “Aryl substituted imidazoquinolines” (Coley Pharmaceutical Group, Inc., priority 2002, dated 2009):

Legend:
[1] = test system: tumor necrosis factor-α (TNF-α) production in mouse macrophage cell line Raw 264.7; assay: TNF-α inhibition in mouse cells, single concentration assay (LPS-stimulated Raw 264.7); type: cell-based; conditions: Raw 264.7 cells stimulated by LPS (EC70), compound 5 μM (single concentration) or 0.03-10 μM (dose response), 18 to 24 hours, ELISA
Description: The compounds of Formulas I and II are useful as immune response modifiers (IRMs) due to their ability to modulate cytokine biosynthesis (e.g., induce or inhibit the biosynthesis or production of one or more cytokines) and otherwise modulate the immune response when administered to animals. Compounds can be tested per the test procedures described in the Examples Section. Compounds can be tested for induction of cytokine biosynthesis by incubating human PBMC in a culture with the compound(s) at a concentration range of 30 to 0.014 μM and analyzing for interferon (α) or tumor necrosis factor (α) in the culture supernatant. Compounds can be tested for inhibition of cytokine biosynthesis by incubating mouse macrophage cell line Raw 264.7 in a culture with the compound(s) at a single concentration of, for example, 5 μM and analyzing for tumor necrosis factor (α) in the culture supernatant. Compounds can be further tested for dose response by running the test at several compound concentrations, for example, 0.03, 0.1, 0.3, 1, 3, 5, and 10 μM. The ability to modulate cytokine biosynthesis makes the compounds useful in the treatment of a variety of conditions such as viral diseases, neoplastic diseases, and autoimmune diseases that are responsive to such changes in the immune response.
The mouse macrophage cell line Raw 264.7 is used to assess the ability of compounds to inhibit tumor necrosis factor-α (TNF-α) production upon stimulation by lipopolysaccharide (LPS).
Raw cells (ATCC) are harvested by gentle scraping and then counted. The cell suspension is brought to 3×10^5 cells/mL in RPMI with 10% fetal bovine serum (FBS). […]
The compounds are solubilized in dimethyl sulfoxide (DMSO). […] LPS (Lipopolysaccaride from Salmonella typhimurium, Sigma-Aldrich) is diluted with colorless RPMI to the EC70 concentration as measured by a dose response assay. […]
Following the incubation the supernatant is removed with a pipet. TNF-α concentration is determined by ELISA using a mouse TNF-α kit (from Biosource International, Camarillo, Calif.). […]

Row | melting point | Compound | modulate cytokine biosynthesis by inhibiting production of tumor necrosis factor α (TNF-α) [1]
1 | 244 to 246 °C | CC(C)Cn1cnc2c(N)nc3ccc(-c4cccnc4)cc3c21 [Example 14, 1-Isobutyl-8-(pyridin-3-yl)-1H-imidazo[4,5-c]quinolin-4-amine] | inhibiting production of tumor necrosis factor α (TNF-α)
2 | 203 to 204 °C | CC(C)Cn1cnc2c(N)nc3ccc(-c4ccccc4)cc3c21 [Example 15, 1-Isobutyl-8-phenyl-1H-imidazo[4,5-c]quinolin-4-amine] | inhibiting production of tumor necrosis factor α (TNF-α)
3 | 227.5 to 231.5 °C | CC(C)Cn1cnc2c(N)nc3ccc(-n4cccc4)cc3c21 [Example 481, 1-(2-Methylpropyl)-8-(1-pyrrolyl)-1H-imidazo[4,5-c]quinolin-4-amine] | inhibiting production of tumor necrosis factor α (TNF-α)
